Literature values in PubChem BioAssay AID1259409 (Chemical Carcinogenesis Research Information System (CCRIS), 2018).

System: rodent chemically induced tumor inhibition, incidence and multiplicity
Test: CCRIS tumor inhibitor studies
Conditions: Route [Inhibitor]: ORAL

Cc1c(C)c2c(c(C)c1O)CC[C@@](C)(CCC[C@H](C)CCC[C@H](C)CCCC(C)C)O2
outcome (Carcinogen: N-BIS(2-HYDROXYPROPYL)NITROSAMINE, 53609-64-6, Dose [Inhibitor]: 0, 1% IN DIET FOR 30 WK BEGINNING POST CARCINOGEN TREATMENT (STUDY DURATION: 32 WK), Species: RAT, Strain/Sex: F344/MALE, Target Tissue: Type of Lesion: LUNG: ADENOMA, Dose [Carcinogen]: 0.1% IN DRINKING WATER FOR 2 WK, Promoter: NONE USED): 100%, 100%, 0, not significant | tumour outcome (control, treated, inhibition, significance) (Carcinogen: N-BIS(2-HYDROXYPROPYL)NITROSAMINE, 53609-64-6, Dose [Inhibitor]: 0, 1% IN DIET FOR 30 WK BEGINNING POST CARCINOGEN TREATMENT (STUDY DURATION: 32 WK), Species: RAT, Strain/Sex: F344/MALE, Target Tissue: Type of Lesion: THYROID: ADENOMA, Dose [Carcinogen]: 0.1% IN DRINKING WATER FOR 2 WK, Promoter: NONE USED): 5%, 10%, -100%, not calculated | tumour outcome (control, treated, inhibition, significance) (Carcinogen: N-BIS(2-HYDROXYPROPYL)NITROSAMINE, 53609-64-6, Dose [Inhibitor]: 0, 1% IN DIET FOR 30 WK BEGINNING POST CARCINOGEN TREATMENT (STUDY DURATION: 32 WK), Species: RAT, Strain/Sex: F344/MALE, Target Tissue: Type of Lesion: THYROID: CARCINOMA, Dose [Carcinogen]: 0.1% IN DRINKING WATER FOR 2 WK, Promoter: NONE USED): 20%, 10%, 50%, not calculated | tumour outcome (control, treated, inhibition, significance) (Carcinogen: N-BIS(2-HYDROXYPROPYL)NITROSAMINE, 53609-64-6, Dose [Inhibitor]: 0, 1% IN DIET FOR 30 WK BEGINNING POST CARCINOGEN TREATMENT (STUDY DURATION: 32 WK, Species: RAT, Strain/Sex: F344/MALE, Target Tissue: Type of Lesion: LUNG: CARCINOMA, Dose [Carcinogen]: 0.1% IN DRINKING WATER FOR 2 WK, Promoter: NONE USED): 45%, 10%, 78%, p<0.05 | tumour outcome (control, treated, inhibition, significance) (Carcinogen: N-METHYL-N'-NITRO-N-NITROSOGUANIDINE, 70-25-7, N-ETHYL-N-HYDROXYETHYLNITROSAMINE, 13147-25-6, N-METHYLBENZYLNITROSAM, Carcinogen: N-METHYL-N'-NITRO-N-NITROSOGUANIDINE, 70-25-7, N-ETHYL-N-HYDROXYETHYLNITROSAMINE, 13147-25-6, N-METHYLBENZYLNITROSAM, Dose [Inhibitor]: 0, 1% IN DIET FOR 36 WK (STUDY DURATION: 36 WK), Species: RAT, Strain/Sex: F344/MALE, Target Tissue: Type of Lesion: KIDNEY: RENAL CELL TUMOR, Dose [Carcinogen]: 100 MG/KG BW MNNG ONCE, 750 MG/KG BW EHEN ONCE, 0.5 MG/KG BW MBN TWICE, 40 MG/KG BW DMH 4 TIMES, 0.05% DBN IN DRINKING W, Promoter: NONE USED): 8/18 (44%), 5/18 (28%), 36%, not calculated | tumour outcome (control, treated, inhibition, significance) (Carcinogen: N-METHYL-N-NITROSOUREA, 684-93-5, Dose [Inhibitor]: 0, 3.349 UMOL/G IN DIET FOR DURATION OF STUDY (STUDY DURATION: 19 WK), Species: RAT, Strain/Sex: SPRAGUE-DAWLEY/FEMALE, Target Tissue: Type of Lesion: MAMMARY GLAND: TUMOR, Dose [Carcinogen]: 30 MG/KG IN ACIDIFIED SALINE ONCE, Promoter: NONE USED): 60%, 50%, 17%, not significant | tumour outcome (control, treated, inhibition, significance) (Carcinogen: N-METHYLBENZYLNITROSAMINE, 937-40-6, Dose [Inhibitor]: 30, 142 IU IN BASAL DIET BEGINNING 1 WK POST CARCINOGEN TREATMENT (STUDY DURATION: 26 WK), Species: MOUSE, Strain/Sex: C57BL/FEMALE, Target Tissue: Type of Lesion: ESOPHAGUS: TUMORS, Dose [Carcinogen]: 0.2 MG/KG BW IN CORN OIL 3/WK FOR 3 WK, Promoter: NONE USED): 6/15 (40%), 3/15 (20%), 50%, p<0.05 | tumour outcome (control, treated, inhibition, significance) (Carcinogen: N-METHYLBENZYLNITROSAMINE, 937-40-6, Dose [Inhibitor]: 30, 142 IU IN BASAL DIET BEGINNING 1 WK POST CARCINOGEN TREATMENT TO MICE INFECTED WITH LP-BM5 MURINE RETROVIRUS (STUDY, Species: MOUSE, Strain/Sex: C57BL/FEMALE, Target Tissue: Type of Lesion: ESOPHAGUS: TUMORS, Dose [Carcinogen]: 0.2 MG/KG BW IN CORN OIL 3/WK FOR 3 WK, Promoter: NONE USED): 12/15 (80%), 11/16 (69%), 14%, not significant | tumour outcome (control, treated, inhibition, significance) (Carcinogen: N-NITROSOMETHYLBENZYLAMINE, 937-40-6, Dose [Inhibitor]: 20, 142 MG/KG DIET BEGINNING POST CARCINOGEN TREATMENT AND CONTINUING FOR DURATION OF STUDY (STUDY DURATION: 23 WK), Species: MOUSE, Strain/Sex: C57BL/FEMALE, Target Tissue: Type of Lesion: ESOPHAGUS: TUMOR, Dose [Carcinogen]: 0.2 MG/KG BW IN CORN OIL 3/WK FOR 3 WK, Promoter: ETHANOL, 64-17-5): 10/17 (59%), 6/16 (38%), 36%, p<0.05 | tumour outcome (control, treated, inhibition, significance) (Carcinogen: NONE USED, Dose [Inhibitor]: 25.5, 550.9 MG/KG IN DIET FOR 40 WK (STUDY DURATION: 40 WK), Species: MOUSE, Strain/Sex: STRAIN-A/MALE, Target Tissue: Type of Lesion: LUNG: TUMOR, Promoter: NONE USED): 8/15 (53%), 4/15 (27%), 49%, not significant | tumour outcome (control, treated, inhibition, significance) (Carcinogen: URETHANE, 51-79-6, Dose [Inhibitor]: 25, 500 MG/KG IN DIET FOR THE DURATION OF STUDY (STUDY DURATION: 26 WK), Species: MOUSE, Strain/Sex: DDY/MALE, Target Tissue: Type of Lesion: LUNG: TUMOR, Dose [Carcinogen]: 750 MG/KG BW ONCE, Promoter: NONE USED): 100%, 80%, 20%, not calculated
